Assay results from BindingDB's records for doi:10.1074/jbc.M809430200 (The Scripps Research Institute, 2009).

Columns and labels:
[1] = biological target: Mitogen-activated protein kinase 14 (p38α) (Homo sapiens) (UniProt Q16539); assay: Homogeneous time-resolved fluorescence assay is an enzyme inhibition studies that were performed in 384-well polystyrene homogeneous time-resolved fluorescence plates (grainier).; conditions: pH 7
[2] = biological target: Mitogen-activated protein kinase 8 (Homo sapiens, UniProt P45983); assay: Fluorescence Assay; conditions: pH 7; 22 °C
Chain of Mitogen-activated protein kinase 8 (P45983 whole entry): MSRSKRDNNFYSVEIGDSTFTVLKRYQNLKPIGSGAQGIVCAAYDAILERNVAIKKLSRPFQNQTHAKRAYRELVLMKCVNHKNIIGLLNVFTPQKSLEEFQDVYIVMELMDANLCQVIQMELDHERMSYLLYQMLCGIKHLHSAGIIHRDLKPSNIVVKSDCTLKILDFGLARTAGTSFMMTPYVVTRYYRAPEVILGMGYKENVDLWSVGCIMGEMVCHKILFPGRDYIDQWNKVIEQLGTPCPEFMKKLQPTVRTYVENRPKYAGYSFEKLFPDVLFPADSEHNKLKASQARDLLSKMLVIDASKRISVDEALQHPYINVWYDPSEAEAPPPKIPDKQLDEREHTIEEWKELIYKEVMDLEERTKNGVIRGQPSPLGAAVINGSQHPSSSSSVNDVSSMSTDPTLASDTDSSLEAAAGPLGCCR
Method: (§1) Homogeneous time-resolved fluorescence assay is an enzyme inhibition studies that were performed in 384-well polystyrene homogeneous time-resolved fluorescence plates (grainier).

[3] = biological target: Mitogen-activated protein kinase 10 (Homo sapiens, UniProt P53779); assay: Fluorescence Assay; conditions: pH 7; 22 °C
Chain of Mitogen-activated protein kinase 10 (P53779 whole entry): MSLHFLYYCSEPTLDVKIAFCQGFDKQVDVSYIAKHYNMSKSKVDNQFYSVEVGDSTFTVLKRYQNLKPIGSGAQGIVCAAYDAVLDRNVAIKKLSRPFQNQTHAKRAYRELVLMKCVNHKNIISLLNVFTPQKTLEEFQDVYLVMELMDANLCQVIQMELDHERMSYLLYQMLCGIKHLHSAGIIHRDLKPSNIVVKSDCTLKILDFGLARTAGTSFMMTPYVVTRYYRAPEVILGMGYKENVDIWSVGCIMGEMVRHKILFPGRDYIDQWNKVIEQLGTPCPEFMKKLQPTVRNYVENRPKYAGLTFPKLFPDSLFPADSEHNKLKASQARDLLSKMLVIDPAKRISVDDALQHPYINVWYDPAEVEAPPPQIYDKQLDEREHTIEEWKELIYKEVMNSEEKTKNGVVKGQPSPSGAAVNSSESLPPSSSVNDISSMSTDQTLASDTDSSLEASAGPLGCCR
Method: as §1

IC50 [1]	IC50 [2]	IC50 [3]	SMILES
3.7 µM	0.4 µM	0.025 µM	COc1cc(NC(=O)c2cccc(-n3cc(NC(=O)Nc4ccccc4)cn3)c2)cc(OC)c1OC [Aminopyrazole inhibitor, 3451]
> 20 µM	0.56 µM	0.023 µM	COc1cc(NC(=O)c2cccc(-n3cc(NC(=O)Nc4ccccc4Cl)cn3)c2)cc(OC)c1OC [Aminopyrazole inhibitor, 3528]
> 20 µM	0.17 µM	0.007 µM	COc1cc(NC(=O)c2cccc(-n3cc(NC(=O)Nc4cccc(C)c4)cn3)c2)cc(OC)c1OC [Aminopyrazole inhibitor, 3576]
		0.48 µM	COc1cc(NC(=O)c2cccc(-n3cc(NC(=O)Nc4ccc(Cl)cc4)cn3)c2)cc(OC)c1OC [Aminopyrazole inhibitor, 3583]
> 20 µM	> 20 µM	2.1 µM	Cc1cccc(NC(=O)Nc2cnn(-c3cccc(C(=O)NCCN4CCOCC4)c3)c2)c1 [Aminopyrazole inhibitor, 4018]
> 20 µM		0.35 µM	O=C(Nc1cnn(-c2cccc(C(=O)NCCCN3CCOCC3)c2)c1)Nc1ccccc1Cl [Aminopyrazole inhibitor, 4276]
> 20 µM	1.4 µM	0.055 µM	Cc1cncc(NC(=O)c2cccc(-n3cc(NC(=O)Nc4ccccc4Cl)cn3)c2)c1 [Aminopyrazole inhibitor, 4326]
> 20 µM	> 20 µM	2.2 µM	Cc1cncc(NC(=O)c2cc(N(C)C)cc(-n3cc(NC(=O)Nc4ccccc4Cl)cn3)c2)c1 [Aminopyrazole inhibitor, 4642]
> 20 µM	> 20 µM	1.5 µM	Cc1cncc(NC(=O)c2cc(N3CCOCC3)cc(-n3cc(NC(=O)Nc4ccccc4Cl)cn3)c2)c1 [Aminopyrazole inhibitor, 4643]
